Data taken from patent US12612637B2, “Compositions and methods for DHFR tunable protein regulation” (Obsidian Therapeutics, Inc., priority 2019, dated 2026).
Read-outs that look alike come from different tables or passages of the source.

Key:
Jurkat cells = test: FACS GFP expression of transduced Jurkat cells treated with DMSO, 2 μM or 50 μM TMP; format: cell-based; conditions: 2 μM TMP or 50 μM TMP, 24 hours
Description: Clones selected from the final library after 4 rounds of sorting were cloned into pLVX.AcGFP.P2A.mcherry constructs and transduced into Jurkat cells for further characterization of DD activity. Transduced Jurkat cells were plated using 500,000 cells per well (1 ml total volume per well in 24 well plate) in duplicate for each condition. Cells were treated with DMSO (control), 2 μM TMP or 50 μM trimethoprim (TMP) for 24 hours prior to fluorescent activated cell sorting (FACS). Cells were characterized by FACS to determine their levels of GFP in the presence and absence of TMP.

[1] = cited from earlier work; for Duration of action: in vivo

| Compound | GFP expression upon addition of TMP (Jurkat cells) | Cmax ([1]; IV) [µM] | Cmax ([1]; PO) [µM] | Duration of action [1] [h] |
| --- | --- | --- | --- | --- |
| hDHFR-046: hDHFR (Y122I) library clone cloned into pLVX.AcGFP.P2A.mcherry construct | higher levels of GFP expression upon addition of TMP | – | – | – |
| COc1cc(Cc2cnc(N)nc2N)cc(OC)c1OC [Trimethoprim] | – | 25 | 1 | 2 to 72 |
| hDHFR-045: hDHFR (Y122I) library clone cloned into pLVX.AcGFP.P2A.mcherry construct | higher levels of GFP expression upon addition of TMP | – | – | – |
| CN(Cc1cnc2nc(N)nc(N)c2n1)c1ccc(C(=O)N[C@@H](CCC(=O)O)C(=O)O)cc1 [Methotrexate] | – | – | – | >12 |
